Measurements taken from patent US20080318791A1, “Use of Lactate Esters for Improving the Action of Agricultural Pesticides” (Bayer Cropscience Aktiengesellschaft, priority 2005, published 2008).

Legend:
[1] = test system: enzymatically isolated leaf cuticles of the top face of pear leaves; experiment: Desorption test: influence of additives on tracer mobility in the cuticle (penetration enhancer / plasticizer effect)
Source text: Additives which act as penetration enhancers at the level of the cuticle may be referred to below as accelerator additives (cf. Schönherr and Baur, 1994, Pesticide Science 42, 185-208). The feature of accelerator additives is their ability to penetrate from the aqueous spray liquor and/or from the spray covering into the cuticle and thereby to increase the mobility of the active compounds in the cuticle. Other additives such as polyethylene glycol, in contrast, only act on the spray covering (via the liquid phase) or act only as wetting agents, such as, for example, sodium dodecylsulphate.
This test determines the influence of additives on the penetration properties of other substances at the level of the cuticle. The mobility of a test substance in the cuticle is measured with and without an additive, by way of a desorption method. The method is published in detail in the literature (Baur et al., 1997, Pesticide Science, 51, 131-152) and only the principles and any deviations are described below.
As a test substance with the function of a tracer a selection was made here of a radiolabelled weak organic acid. Plant material used comprises the enzymatically isolated leaf cuticles of the top face of pear leaves from outdoor trees. […] This inner side readily takes up the small radioactive amount of the tracer in the undissociated acid form. […]

[2] = test system: primary leaves of barley seedlings; experiment: Retention test of spray liquor on poorly wettable leaf
Protocol: Retention is to be understood as meaning the adherence of spray mists to surfaces, for example plants or plant parts (leaves), after spray application. The retention depends both on the composition of the spray liquor and on the nature of the treated surface. The retention of a spray liquor (aqueous solution of the stated additive) was determined using a poorly wettable leaf in comparison to a reference surface with complete retention. The reported results were obtained using primary leaves of barley seedlings which had been cultivated in a greenhouse (18° C., 80% atmospheric humidity, 16 h of light). Individual cut leaves were subjected to standard treatment in a spray cabin using a track sprayer-flat-jet nozzle: XR 11002 VS; pressure: 3 bar; […]. Weight and leaf area were determined prior to the treatment, and the adhering spray coating was correspondingly determined gravimetrically and normalized to leaf area. A nonwoven-fabric paper cloth serves as reference surface for 100% retention. Per spray liquor variant, at least 5 individual leaves were treated, and the calculated retentions were then averaged. A test series where pure tap water as spray liquor was sprayed onto the barley seedling leaves was carried out as negative control (lowest retention).

SMILES: CCCCC(CC)COC(=O)C(C)O (centres unmarked) [2-Ethylhexyl lactate]
- Effectiveness as cuticle plasticizer (in words) ([1]; Table 1): very effective as a plasticizer
- Mean effect (ratio of desorption slopes with additive to without additive) ([1]; additive concentration 1 g/l, radiolabelled weak organic acid tracer): 45
- Effect on retention (in words) ([2]; 0.3 g/l): increased the retention considerably
- Retention ([2]; additive 0.3 g/l in water, 100% = nonwoven-fabric paper cloth): 60.6%
- Retention ([2]; additive 3 g/l + 0.2 g/l Pluronic PE 10500 emulsifier): 61%
